Measured values published in ChEMBL document CHEMBL2086297, “Reduced pulmonary surfactant interaction of daptomycin analogs via tryptophan replacement with alternative amino acids” (2012).
≈ marks a conversion by molar mass, not a printed value.

Tests used:
Assay type in all cases: functional
Staphylococcus aureus [1] = experiment: Antibacterial activity against methicillin-susceptible Staphylococcus aureus ATCC 29213 by broth microdilution method in presence of 4% human serum albumin
Staphylococcus aureus [2] = experiment: Antibacterial activity against methicillin-susceptible Staphylococcus aureus ATCC 29213 by broth microdilution method in presence of 1% pulmonary surfactant; conditions: ATCC 29213, Pulmonary surfactant
Staphylococcus aureus [3] = experiment: Antibacterial activity against methicillin-susceptible Staphylococcus aureus ATCC 29213 by broth microdilution method in presence of 5% pulmonary surfactant; conditions: ATCC 29213, Pulmonary surfactant
Staphylococcus aureus [4] = experiment: Antibacterial activity against methicillin-susceptible Staphylococcus aureus ATCC 29213 grown on calcium supplemented Mueller-Hinton broth by broth microdilution method

| Structure (SMILES) | MIC (Staphylococcus aureus [1]) [mg/L] | MIC (Staphylococcus aureus [2]) [mg/L] | MIC (Staphylococcus aureus [3]) [mg/L] | MIC (Staphylococcus aureus [4]) [mg/L] |
| --- | --- | --- | --- | --- |
| CCCCCCCCCC(=O)N[C@@H](Cc1c[nH]c2ccc(F)cc12)C(=O)N[C@@H](CC(N)=O)C(=O)N[C@@H](CC(=O)O)C(=O)N[C@@H]1C(=O)NCC(=O)N[C@@H](CCCN)C(=O)N[C@@H](CC(=O)O)C(=O)N[C@H](C)C(=O)N[C@@H](CC(=O)O)C(=O)NCC(=O)N[C@H](CO)C(=O)N[C@@H]([C@@H](C)CC(=O)O)C(=O)N[C@@H](CC(=O)c2ccccc2N)C(=O)O[C@@H]1C | 1 | 16 | > 32 | 0.25 (≈ 0.153 µM) |
| CCCCCCCCCC(=O)N[C@@H](Cc1c[nH]c2ccc(OC)cc12)C(=O)N[C@@H](CC(N)=O)C(=O)N[C@@H](CC(=O)O)C(=O)N[C@@H]1C(=O)NCC(=O)N[C@@H](CCCN)C(=O)N[C@@H](CC(=O)O)C(=O)N[C@H](C)C(=O)N[C@@H](CC(=O)O)C(=O)NCC(=O)N[C@H](CO)C(=O)N[C@@H]([C@@H](C)CC(=O)O)C(=O)N[C@@H](CC(=O)c2ccccc2N)C(=O)O[C@@H]1C | 8 | 16 | 32 | 4 (≈ 2.42 µM) |
| CCCCCCCCCC(=O)N[C@@H](Cc1csc2ccccc12)C(=O)N[C@@H](CC(N)=O)C(=O)N[C@@H](CC(=O)O)C(=O)N[C@@H]1C(=O)NCC(=O)N[C@@H](CCCN)C(=O)N[C@@H](CC(=O)O)C(=O)N[C@H](C)C(=O)N[C@@H](CC(=O)O)C(=O)NCC(=O)N[C@H](CO)C(=O)N[C@@H]([C@@H](C)CC(=O)O)C(=O)N[C@@H](CC(=O)c2ccccc2N)C(=O)O[C@@H]1C | 4 | 8 | 16 | 2 (≈ 1.22 µM) |
| CCCCCCCCCC(=O)N[C@@H](Cc1ccsc1)C(=O)N[C@@H](CC(N)=O)C(=O)N[C@@H](CC(=O)O)C(=O)N[C@@H]1C(=O)NCC(=O)N[C@@H](CCCN)C(=O)N[C@@H](CC(=O)O)C(=O)N[C@H](C)C(=O)N[C@@H](CC(=O)O)C(=O)NCC(=O)N[C@H](CO)C(=O)N[C@@H]([C@@H](C)CC(=O)O)C(=O)N[C@@H](CC(=O)c2ccccc2N)C(=O)O[C@@H]1C | 32 | 8 | 16 | 4 (≈ 2.52 µM) |
| CCCCCCCCCC(=O)N[C@@H](Cc1ccccc1)C(=O)N[C@@H](CC(N)=O)C(=O)N[C@@H](CC(=O)O)C(=O)N[C@@H]1C(=O)NCC(=O)N[C@@H](CCCN)C(=O)N[C@@H](CC(=O)O)C(=O)N[C@H](C)C(=O)N[C@@H](CC(=O)O)C(=O)NCC(=O)N[C@H](CO)C(=O)N[C@@H]([C@@H](C)CC(=O)O)C(=O)N[C@@H](CC(=O)c2ccccc2N)C(=O)O[C@@H]1C | 4 | 4 | 8 | 2 (≈ 1.26 µM) |
| CCCCCCCCCC(=O)N[C@@H](Cc1ccc(F)cc1)C(=O)N[C@@H](CC(N)=O)C(=O)N[C@@H](CC(=O)O)C(=O)N[C@@H]1C(=O)NCC(=O)N[C@@H](CCCN)C(=O)N[C@@H](CC(=O)O)C(=O)N[C@H](C)C(=O)N[C@@H](CC(=O)O)C(=O)NCC(=O)N[C@H](CO)C(=O)N[C@@H]([C@@H](C)CC(=O)O)C(=O)N[C@@H](CC(=O)c2ccccc2N)C(=O)O[C@@H]1C | 8 | 8 | 16 | 2 (≈ 1.25 µM) |
| CCCCCCCCCC(=O)N[C@@H](Cc1ccc(C(F)(F)F)cc1)C(=O)N[C@@H](CC(N)=O)C(=O)N[C@@H](CC(=O)O)C(=O)N[C@@H]1C(=O)NCC(=O)N[C@@H](CCCN)C(=O)N[C@@H](CC(=O)O)C(=O)N[C@H](C)C(=O)N[C@@H](CC(=O)O)C(=O)NCC(=O)N[C@H](CO)C(=O)N[C@@H]([C@@H](C)CC(=O)O)C(=O)N[C@@H](CC(=O)c2ccccc2N)C(=O)O[C@@H]1C | 8 | 32 | > 32 | 2 (≈ 1.21 µM) |
| CCCCCCCCCC(=O)N[C@@H](Cc1ccc(C)cc1)C(=O)N[C@@H](CC(N)=O)C(=O)N[C@@H](CC(=O)O)C(=O)N[C@@H]1C(=O)NCC(=O)N[C@@H](CCCN)C(=O)N[C@@H](CC(=O)O)C(=O)N[C@H](C)C(=O)N[C@@H](CC(=O)O)C(=O)NCC(=O)N[C@H](CO)C(=O)N[C@@H]([C@@H](C)CC(=O)O)C(=O)N[C@@H](CC(=O)c2ccccc2N)C(=O)O[C@@H]1C | 8 | 2 | 8 | 1 (≈ 0.627 µM) |
| CCCCCCCCCC(=O)N[C@@H](Cc1ccc(OC)cc1)C(=O)N[C@@H](CC(N)=O)C(=O)N[C@@H](CC(=O)O)C(=O)N[C@@H]1C(=O)NCC(=O)N[C@@H](CCCN)C(=O)N[C@@H](CC(=O)O)C(=O)N[C@H](C)C(=O)N[C@@H](CC(=O)O)C(=O)NCC(=O)N[C@H](CO)C(=O)N[C@@H]([C@@H](C)CC(=O)O)C(=O)N[C@@H](CC(=O)c2ccccc2N)C(=O)O[C@@H]1C | 8 | 2 | 2 | 2 (≈ 1.24 µM) |
| CCCCCCCCCC(=O)N[C@@H](Cc1ccc(OCC)cc1)C(=O)N[C@@H](CC(N)=O)C(=O)N[C@@H](CC(=O)O)C(=O)N[C@@H]1C(=O)NCC(=O)N[C@@H](CCCN)C(=O)N[C@@H](CC(=O)O)C(=O)N[C@H](C)C(=O)N[C@@H](CC(=O)O)C(=O)NCC(=O)N[C@H](CO)C(=O)N[C@@H]([C@@H](C)CC(=O)O)C(=O)N[C@@H](CC(=O)c2ccccc2N)C(=O)O[C@@H]1C | 8 | 4 | 16 | 4 (≈ 2.46 µM) |
| CCCCCCCCCC(=O)N[C@@H](Cc1cccc(OC)c1)C(=O)N[C@@H](CC(N)=O)C(=O)N[C@@H](CC(=O)O)C(=O)N[C@@H]1C(=O)NCC(=O)N[C@@H](CCCN)C(=O)N[C@@H](CC(=O)O)C(=O)N[C@H](C)C(=O)N[C@@H](CC(=O)O)C(=O)NCC(=O)N[C@H](CO)C(=O)N[C@@H]([C@@H](C)CC(=O)O)C(=O)N[C@@H](CC(=O)c2ccccc2N)C(=O)O[C@@H]1C | 4 | 2 | 4 | 2 (≈ 1.24 µM) |
| CCCCCCCCCC(=O)N[C@@H](Cc1ccccc1OC)C(=O)N[C@@H](CC(N)=O)C(=O)N[C@@H](CC(=O)O)C(=O)N[C@@H]1C(=O)NCC(=O)N[C@@H](CCCN)C(=O)N[C@@H](CC(=O)O)C(=O)N[C@H](C)C(=O)N[C@@H](CC(=O)O)C(=O)NCC(=O)N[C@H](CO)C(=O)N[C@@H]([C@@H](C)CC(=O)O)C(=O)N[C@@H](CC(=O)c2ccccc2N)C(=O)O[C@@H]1C | 8 | 2 | 4 | 2 (≈ 1.24 µM) |
| CCCCCCCCCC(=O)N[C@@H](Cc1ccc(OC)cc1OC)C(=O)N[C@@H](CC(N)=O)C(=O)N[C@@H](CC(=O)O)C(=O)N[C@@H]1C(=O)NCC(=O)N[C@@H](CCCN)C(=O)N[C@@H](CC(=O)O)C(=O)N[C@H](C)C(=O)N[C@@H](CC(=O)O)C(=O)NCC(=O)N[C@H](CO)C(=O)N[C@@H]([C@@H](C)CC(=O)O)C(=O)N[C@@H](CC(=O)c2ccccc2N)C(=O)O[C@@H]1C | 16 | 8 | 8 | 8 (≈ 4.87 µM) |
| CCCCCCCCCC(=O)N[C@@H](Cc1ccc(OC)c(OC)c1)C(=O)N[C@@H](CC(N)=O)C(=O)N[C@@H](CC(=O)O)C(=O)N[C@@H]1C(=O)NCC(=O)N[C@@H](CCCN)C(=O)N[C@@H](CC(=O)O)C(=O)N[C@H](C)C(=O)N[C@@H](CC(=O)O)C(=O)NCC(=O)N[C@H](CO)C(=O)N[C@@H]([C@@H](C)CC(=O)O)C(=O)N[C@@H](CC(=O)c2ccccc2N)C(=O)O[C@@H]1C | 32 | 16 | 16 | 16 (≈ 9.75 µM) |
